Experimental data: patent US20210386367A1, “DEVICES AND SYSTEMS FOR GASTROINTESTINAL MICROBIOME DETECTION AND MANIPULATION” (Progenity, Inc., priority 2018, published 2021)
≈ marks a conversion by molar mass, not a printed value.

Tested on: Bacteroides fragilis
Experiment: Agar dilution MIC, 30 clinical isolates
Format: cell-based
Details: 30 Bacteroides fragilis clinical isolates

`Cc1ncc([N+](=O)[O-])n1CCO` [MTZ] was tested, and the “% S” value was 100%, the MIC50 was 1 µg/mL (≈ 5.84 µM) and the MIC90 was 2 µg/mL (≈ 11.7 µM). For the same compound, the MIC range was 0.25 to 2 µg/mL and the Mode (modal MIC) was 1 µg/mL.
